Blank lines part the entries; values can stand above or below the compound they belong to.
What was measured:
[1] = target: T1, Membrane-associated tyrosine- and threonine-specific cdc2-inhibitory kinase (Homo sapiens) (UniProt Q99640); assay: Selectivity interaction (LanthaScreen Eu Kinase Binding Assay) EUB0001632a PKMYT1; conditions: at 10 µM
T1 sequence (whole entry): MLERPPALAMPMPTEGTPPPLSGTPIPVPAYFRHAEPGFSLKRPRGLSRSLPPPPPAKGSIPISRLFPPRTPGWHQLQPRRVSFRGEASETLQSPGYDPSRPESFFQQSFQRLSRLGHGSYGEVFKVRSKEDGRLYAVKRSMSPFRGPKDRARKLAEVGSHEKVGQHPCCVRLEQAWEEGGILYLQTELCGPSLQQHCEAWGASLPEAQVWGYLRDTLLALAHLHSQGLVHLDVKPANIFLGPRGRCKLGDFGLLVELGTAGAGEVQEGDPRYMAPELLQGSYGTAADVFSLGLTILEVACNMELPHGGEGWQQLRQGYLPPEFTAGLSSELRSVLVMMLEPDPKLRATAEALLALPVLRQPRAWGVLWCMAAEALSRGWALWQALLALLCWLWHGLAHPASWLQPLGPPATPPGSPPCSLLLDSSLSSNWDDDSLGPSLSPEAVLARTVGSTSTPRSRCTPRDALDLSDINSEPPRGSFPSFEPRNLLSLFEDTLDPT

[2] = target: Tyrosine-protein kinase Fer (Homo sapiens) (UniProt P16591); assay: Selectivity interaction (ActivX KiNativ screen (kinase selectivity in THP-1 cell lysates)) EUB0000639a FER; format: subcellular; conditions: lysate, at 0.2 µM
[3] = target: Phosphatidylinositol 4-kinase alpha (Homo sapiens, UniProt P42356); assay: Selectivity interaction (Kinase panel (Invitrogen)) EUB0000639a PI4KA; conditions: at 200 nM
[4] = target: Maternal embryonic leucine zipper kinase (Homo sapiens) (UniProt Q14680); assay: Selectivity interaction (ProQinase) EUB0000171b MELK
[5] = target: T2, Serine/threonine-protein kinase Nek3 (Homo sapiens) (UniProt P51956); assay: Selectivity interaction (KinomeScan (DiscoverX)) EUB0001049a NEK3; conditions: at 1 µM
T2 sequence (whole entry): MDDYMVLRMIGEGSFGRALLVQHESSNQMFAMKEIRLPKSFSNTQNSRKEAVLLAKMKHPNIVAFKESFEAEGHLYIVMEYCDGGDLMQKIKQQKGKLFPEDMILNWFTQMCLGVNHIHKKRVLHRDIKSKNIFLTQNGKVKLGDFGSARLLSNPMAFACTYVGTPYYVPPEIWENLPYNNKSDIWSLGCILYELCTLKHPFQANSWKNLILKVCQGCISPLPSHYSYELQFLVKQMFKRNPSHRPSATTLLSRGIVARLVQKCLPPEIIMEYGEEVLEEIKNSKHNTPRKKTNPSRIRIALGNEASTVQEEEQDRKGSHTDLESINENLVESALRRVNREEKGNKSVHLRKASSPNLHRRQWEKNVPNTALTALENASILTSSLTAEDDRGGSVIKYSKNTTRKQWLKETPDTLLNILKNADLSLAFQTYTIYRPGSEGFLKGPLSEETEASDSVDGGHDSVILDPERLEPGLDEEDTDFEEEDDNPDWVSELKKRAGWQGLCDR

[6] = target: Dual specificity tyrosine-phosphorylation-regulated kinase 1B (Homo sapiens, UniProt Q9Y463); assay: Selectivity interaction (Enzymatic assay) EUB0001550a DYRK1B
[7] = target: Histone-lysine N-methyltransferase ASH1L (Homo sapiens) (UniProt Q9NR48); assay: Selectivity interaction (Bromodomain panel (DSF asssay)) EUB0000270b ASH1L
[8] = target: T3, Phosphorylase b kinase gamma catalytic chain, liver/testis isoform (Homo sapiens) (UniProt P15735); assay: Selectivity interaction (KinomeScan (DiscoverX)) EUB0000229b PHKG2; conditions: at 10 µM
T3 sequence (whole entry): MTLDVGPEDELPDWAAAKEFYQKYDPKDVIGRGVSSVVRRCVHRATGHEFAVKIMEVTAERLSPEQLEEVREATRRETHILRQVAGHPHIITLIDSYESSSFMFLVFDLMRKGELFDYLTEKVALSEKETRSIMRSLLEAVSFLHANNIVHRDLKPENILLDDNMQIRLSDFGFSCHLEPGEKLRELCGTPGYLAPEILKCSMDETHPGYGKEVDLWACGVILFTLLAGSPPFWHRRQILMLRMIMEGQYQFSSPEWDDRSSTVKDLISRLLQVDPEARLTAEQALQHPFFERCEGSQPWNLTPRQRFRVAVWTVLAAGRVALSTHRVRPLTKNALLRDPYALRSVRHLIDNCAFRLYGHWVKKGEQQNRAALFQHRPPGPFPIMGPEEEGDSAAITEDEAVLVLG

[9] = target: Myosin light chain kinase, smooth muscle (Homo sapiens, UniProt Q15746); conditions: at 10 µM
[10] = target: T4, Megakaryocyte-associated tyrosine-protein kinase (Homo sapiens) (UniProt P42679); conditions: at 10 µM
T4 sequence (whole entry): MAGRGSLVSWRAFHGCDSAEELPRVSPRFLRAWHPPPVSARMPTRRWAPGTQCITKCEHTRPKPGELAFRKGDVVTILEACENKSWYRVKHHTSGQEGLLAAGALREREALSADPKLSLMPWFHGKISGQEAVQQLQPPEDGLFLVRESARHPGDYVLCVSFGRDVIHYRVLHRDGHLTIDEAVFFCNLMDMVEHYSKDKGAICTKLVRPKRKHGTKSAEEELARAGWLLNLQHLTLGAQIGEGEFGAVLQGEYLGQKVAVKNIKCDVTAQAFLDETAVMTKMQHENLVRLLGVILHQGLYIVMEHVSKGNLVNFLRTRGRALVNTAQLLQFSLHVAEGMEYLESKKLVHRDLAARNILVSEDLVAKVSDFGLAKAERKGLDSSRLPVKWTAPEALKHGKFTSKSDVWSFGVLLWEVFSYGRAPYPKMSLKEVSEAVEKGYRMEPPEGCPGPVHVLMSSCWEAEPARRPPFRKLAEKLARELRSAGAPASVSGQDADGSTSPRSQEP

[11] = target: Tyrosine-protein kinase CSK (Homo sapiens) (UniProt P41240); assay: Selectivity interaction (KinomeScan (DiscoverX)) EUB0000618a CSK; conditions: at 10 µM
Tyrosine-protein kinase CSK (Homo sapiens), sequence (P41240 2-450 limits assumed): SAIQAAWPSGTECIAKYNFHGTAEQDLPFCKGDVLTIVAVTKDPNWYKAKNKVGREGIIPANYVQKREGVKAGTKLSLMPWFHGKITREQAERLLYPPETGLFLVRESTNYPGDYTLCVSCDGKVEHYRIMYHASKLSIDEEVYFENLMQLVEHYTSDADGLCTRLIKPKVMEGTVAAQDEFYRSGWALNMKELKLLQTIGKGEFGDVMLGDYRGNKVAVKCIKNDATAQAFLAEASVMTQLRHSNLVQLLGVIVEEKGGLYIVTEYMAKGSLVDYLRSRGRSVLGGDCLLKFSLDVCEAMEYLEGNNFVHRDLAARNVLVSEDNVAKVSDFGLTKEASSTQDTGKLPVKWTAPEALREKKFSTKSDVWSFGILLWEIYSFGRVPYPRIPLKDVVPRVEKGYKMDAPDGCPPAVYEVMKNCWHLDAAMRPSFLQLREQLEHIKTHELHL

Maternal embryonic leucine zipper kinase (Homo sapiens), sequence (Q14680 whole entry, looked up): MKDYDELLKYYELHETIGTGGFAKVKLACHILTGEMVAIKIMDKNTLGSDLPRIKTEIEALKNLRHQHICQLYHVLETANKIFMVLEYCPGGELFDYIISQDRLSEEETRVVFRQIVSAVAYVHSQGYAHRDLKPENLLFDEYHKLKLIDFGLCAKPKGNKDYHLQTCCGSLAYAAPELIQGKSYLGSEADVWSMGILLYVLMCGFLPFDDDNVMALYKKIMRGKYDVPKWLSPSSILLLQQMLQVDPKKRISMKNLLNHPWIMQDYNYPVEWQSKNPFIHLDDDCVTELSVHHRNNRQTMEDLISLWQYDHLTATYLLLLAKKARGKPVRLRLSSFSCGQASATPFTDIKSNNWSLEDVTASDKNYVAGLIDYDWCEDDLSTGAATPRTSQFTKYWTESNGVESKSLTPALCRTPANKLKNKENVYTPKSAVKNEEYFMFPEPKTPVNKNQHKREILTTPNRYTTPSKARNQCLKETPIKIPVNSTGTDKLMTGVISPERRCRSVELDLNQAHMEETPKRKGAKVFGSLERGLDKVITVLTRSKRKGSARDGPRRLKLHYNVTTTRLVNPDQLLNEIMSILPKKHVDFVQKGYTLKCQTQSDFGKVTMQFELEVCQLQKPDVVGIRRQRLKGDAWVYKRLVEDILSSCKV
Tyrosine-protein kinase Fer (Homo sapiens), sequence (P16591 whole entry, looked up): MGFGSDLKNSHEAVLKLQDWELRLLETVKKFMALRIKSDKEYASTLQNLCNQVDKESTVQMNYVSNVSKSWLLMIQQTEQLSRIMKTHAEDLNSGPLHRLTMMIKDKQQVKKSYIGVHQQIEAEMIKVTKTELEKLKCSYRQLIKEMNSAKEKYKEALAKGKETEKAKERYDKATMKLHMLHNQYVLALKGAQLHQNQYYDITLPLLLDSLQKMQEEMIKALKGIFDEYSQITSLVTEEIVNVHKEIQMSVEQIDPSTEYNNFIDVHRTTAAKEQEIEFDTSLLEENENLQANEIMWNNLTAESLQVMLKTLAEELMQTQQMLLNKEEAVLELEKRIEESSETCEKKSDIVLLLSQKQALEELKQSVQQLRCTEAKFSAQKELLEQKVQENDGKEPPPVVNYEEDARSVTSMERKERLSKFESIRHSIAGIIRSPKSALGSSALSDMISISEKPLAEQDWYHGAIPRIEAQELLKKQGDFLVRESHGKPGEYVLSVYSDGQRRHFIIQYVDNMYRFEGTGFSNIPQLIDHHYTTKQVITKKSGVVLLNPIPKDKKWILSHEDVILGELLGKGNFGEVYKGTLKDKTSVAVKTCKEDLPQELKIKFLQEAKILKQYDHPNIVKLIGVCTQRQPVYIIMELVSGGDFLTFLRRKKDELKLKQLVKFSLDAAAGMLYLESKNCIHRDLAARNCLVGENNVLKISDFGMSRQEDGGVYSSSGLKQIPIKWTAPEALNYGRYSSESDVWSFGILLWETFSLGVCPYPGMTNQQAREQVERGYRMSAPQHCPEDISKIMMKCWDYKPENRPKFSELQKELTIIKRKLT
Dual specificity tyrosine-phosphorylation-regulated kinase 1B, sequence (Q9Y463 whole entry): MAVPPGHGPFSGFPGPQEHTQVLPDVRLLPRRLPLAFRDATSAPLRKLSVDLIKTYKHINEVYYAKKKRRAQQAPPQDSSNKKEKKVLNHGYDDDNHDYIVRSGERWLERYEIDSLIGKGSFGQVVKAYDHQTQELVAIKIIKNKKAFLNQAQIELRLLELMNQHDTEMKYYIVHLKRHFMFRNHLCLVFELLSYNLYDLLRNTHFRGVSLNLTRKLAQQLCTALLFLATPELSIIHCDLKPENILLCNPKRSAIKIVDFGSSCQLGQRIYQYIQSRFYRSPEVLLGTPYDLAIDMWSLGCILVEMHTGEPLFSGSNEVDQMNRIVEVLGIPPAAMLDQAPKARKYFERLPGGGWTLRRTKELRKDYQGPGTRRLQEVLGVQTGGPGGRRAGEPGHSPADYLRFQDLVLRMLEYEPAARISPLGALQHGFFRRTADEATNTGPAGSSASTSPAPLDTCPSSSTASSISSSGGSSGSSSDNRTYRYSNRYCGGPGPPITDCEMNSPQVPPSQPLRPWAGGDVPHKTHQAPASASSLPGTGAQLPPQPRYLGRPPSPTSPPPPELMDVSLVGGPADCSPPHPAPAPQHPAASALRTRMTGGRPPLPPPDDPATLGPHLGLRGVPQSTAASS
Myosin light chain kinase, smooth muscle, sequence (Q15746 whole entry): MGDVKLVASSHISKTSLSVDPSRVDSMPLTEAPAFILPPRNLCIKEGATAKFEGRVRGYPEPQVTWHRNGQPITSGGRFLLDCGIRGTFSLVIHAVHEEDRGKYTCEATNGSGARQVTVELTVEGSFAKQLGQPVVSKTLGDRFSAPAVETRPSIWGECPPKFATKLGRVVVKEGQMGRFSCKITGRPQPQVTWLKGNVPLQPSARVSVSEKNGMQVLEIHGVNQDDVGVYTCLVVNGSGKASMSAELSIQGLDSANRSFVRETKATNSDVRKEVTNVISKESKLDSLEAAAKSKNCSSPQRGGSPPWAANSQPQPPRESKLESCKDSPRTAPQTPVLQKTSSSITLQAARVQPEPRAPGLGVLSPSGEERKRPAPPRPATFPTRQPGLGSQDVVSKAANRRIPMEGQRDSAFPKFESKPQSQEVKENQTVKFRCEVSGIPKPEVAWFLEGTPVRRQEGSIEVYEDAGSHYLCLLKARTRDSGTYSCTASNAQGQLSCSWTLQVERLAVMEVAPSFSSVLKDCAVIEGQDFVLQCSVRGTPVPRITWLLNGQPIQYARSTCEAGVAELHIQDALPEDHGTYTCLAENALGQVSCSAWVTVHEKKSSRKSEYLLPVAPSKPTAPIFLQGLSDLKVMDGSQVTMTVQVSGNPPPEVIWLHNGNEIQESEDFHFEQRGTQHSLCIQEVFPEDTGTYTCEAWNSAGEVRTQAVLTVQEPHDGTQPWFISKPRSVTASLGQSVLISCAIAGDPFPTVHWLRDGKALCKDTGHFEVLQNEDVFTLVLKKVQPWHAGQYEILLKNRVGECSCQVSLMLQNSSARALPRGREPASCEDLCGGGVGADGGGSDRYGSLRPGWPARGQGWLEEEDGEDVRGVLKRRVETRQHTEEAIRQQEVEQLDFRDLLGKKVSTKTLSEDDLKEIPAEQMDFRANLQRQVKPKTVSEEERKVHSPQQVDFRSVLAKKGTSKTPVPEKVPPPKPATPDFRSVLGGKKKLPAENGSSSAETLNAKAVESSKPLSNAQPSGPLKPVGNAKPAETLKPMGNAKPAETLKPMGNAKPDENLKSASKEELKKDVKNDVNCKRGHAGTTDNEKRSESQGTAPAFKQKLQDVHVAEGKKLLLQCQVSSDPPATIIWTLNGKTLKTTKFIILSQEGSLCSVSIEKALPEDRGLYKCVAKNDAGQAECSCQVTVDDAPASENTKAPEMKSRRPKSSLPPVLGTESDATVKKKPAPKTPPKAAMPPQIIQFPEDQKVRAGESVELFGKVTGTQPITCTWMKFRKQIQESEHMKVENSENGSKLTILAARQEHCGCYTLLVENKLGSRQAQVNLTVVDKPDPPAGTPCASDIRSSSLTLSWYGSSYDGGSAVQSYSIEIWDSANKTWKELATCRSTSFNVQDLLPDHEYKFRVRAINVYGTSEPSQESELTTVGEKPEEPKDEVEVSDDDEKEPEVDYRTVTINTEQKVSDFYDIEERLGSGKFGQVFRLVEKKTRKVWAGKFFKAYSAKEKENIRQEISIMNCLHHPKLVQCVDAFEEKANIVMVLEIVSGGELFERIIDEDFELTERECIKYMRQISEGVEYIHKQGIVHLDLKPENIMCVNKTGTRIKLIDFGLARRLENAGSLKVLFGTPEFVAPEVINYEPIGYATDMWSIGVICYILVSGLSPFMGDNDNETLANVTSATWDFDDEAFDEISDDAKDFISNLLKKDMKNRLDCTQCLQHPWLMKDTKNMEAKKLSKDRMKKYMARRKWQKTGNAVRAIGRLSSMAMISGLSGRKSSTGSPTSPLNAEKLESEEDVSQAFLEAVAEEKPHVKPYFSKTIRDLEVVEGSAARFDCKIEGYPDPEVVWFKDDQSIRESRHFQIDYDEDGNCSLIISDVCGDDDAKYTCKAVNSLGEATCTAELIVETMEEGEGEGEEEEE

% of inhibition [1]: -3.65%
SMILES: Cn1cc(-n2cnc3c(NCc4nc5cc(Cl)c(Cl)cc5[nH]4)nc(N4CCOCC4)nc32)cn1

% of inhibition [2]: -7.1%
% of inhibition [3]: -0.209%
SMILES: CC[C@@H]1[C@H](F)C(=O)N[C@@H]1COc1nccc2cc(C(N)=O)c(OC)cc12 [ZIMLOVISERTIB]

% of control ([4]; at 1 µM): 95%
% of control ([4]; at 5 µM): 70%
SMILES: C=CC(=O)Nc1cccc(C(=O)Nc2ccc(Nc3cc(-c4[nH]c(SC)nc4C)ccn3)cc2)c1

SMILES: COc1cc(Nc2nc(C)cc(-c3cnn4nc(OC)ccc34)n2)cc(C(F)(F)F)c1
% of control [5]: 92%

IC50 [6]: 380 nM
SMILES: CN(C)CC#Cc1ccc2[nH]c3c(c2c1)-c1nc(N)ncc1CCC3

dTM [7]: -1.06 K
SMILES: Cc1cc(CN)cc(C)c1-c1ncn(C)c1-c1cncn1C

SMILES: COc1cc(N(C)c2ccnc3ccc(C(F)(F)F)cc23)cc(OC)c1OC
% binding [8]: 85%

SMILES: Cc1cc([C@@H](C)Nc2ccccc2C(=O)O)c2nc(N3CCOCC3)cc(=O)n2c1 [AZD-6482]
% of control [9]: 70%
% of control [10]: 96%

SMILES: O[C@H]1CC[C@H](Nc2ncc3nc(Nc4c(F)cc(F)cc4F)n([C@H]4CCOC4)c3n2)CC1
% of control [11]: 98%
